Data published in patent US20200270588A1, “GLUCOSYL TRANSFERASE POLYPEPTIDES AND METHODS OF USE” (Syngenta Participations AG, priority 2017, published 2020).

Columns and labels:
Assay type in all cases: biochemical
[1] = biological target: T1, SEQ ID NO 20, mutant of Zea mays bx9 glucosyl transferase (Zea mays, UniProt B4G072, A281K/A334K/F21Y/L194V/M279F/S117V); conditions: lower block, concentration printed only in upper block: V 0.300, VII 0.210; IV, VIII, XI, XXI, XX, XVIII, XVI, XV, XIV 0.200; others 1.000 mM
T1 construct: His tag (C); made in house
Protocol: (§1) Glucosyl transferase activity is assayed via measurement of acceptor substrate-dependent production of UDP from ultrapure UDP-glucose using the Promega UDP-Glo™ method and according to the manufacturer's instructions. Assays are run in 96 well microtiter plates.
(§2) Enzyme, typically at a stock concentration of ˜2 mg/ml is diluted to an appropriate concentration in 50 mM K^+ Hepes buffer at pH7.5 containing 0.5 mg/mL bovine serum albumin (BSA) and 5 ul aliquots of this diluted enzyme added to each well of a Perkin Elmer white ½ area 96 well plate. […] Assays are run for an appropriate time (usually 10 to 60 min) so that the amount of UDP formed lies within the most nearly linear part of the UDP standard curve and are stopped with the addition and mixing of 25 ul UDP-Glo™ detection reagent (prepared as described below). Plates are then incubated at room temperature for 60 minutes and then read in a luminescence plate reader (Perkin Elmer Envision 2130 Multilabel Reader). A UDP standard curve is run alongside each set of assays and reagent blank control assays run with DMSO in place of test herbicide.
(§3) The UDP-Glo™ reagents are made up and used according to the manufacturer's instructions. Thus, Nucleotide Detection Buffer and ATP are combined to make nucleotide detection reagent (NDR) dispensed into aliquots and frozen to be freshly thawed before use.
(§4) Km and kcat values in respect of UDP-glucose are derived by carrying out experiments to measure initial rates over a suitable range of concentrations of UDP glucose out at a fixed near saturating concentration of acceptor substrate. Best fit values of kcat, Km and kcat/Km are obtained by direct fitting of the data to the Michaelis-Menten equation using Graphpad Prism™ software.
All of these proteins were C-terminally his-tagged, expressed and purified as described in Example 1. Assays were run and analyzed as described in example 1.

[2] = biological target: T2, SEQ ID NO 23, mutant of Zea mays bx9 glucosyl transferase (Zea mays, UniProt B4G072, A334K/F21Y/L194C/M279F/S117V); assay: UDP-Glo glucosyl transferase assay, purified enzyme; conditions: lower block, concentration printed only in upper block: V 0.300, VII 0.210; IV, VIII, XI, XXI, XX, XVIII, XVI, XV, XIV 0.200; others 1.000 mM
T2 construct: His tag (C); made in house
Protocol: as §1
as §2, with “herbicide. Typically, 300 pmol of UDP corresponds to a Relative Luminescence Unit (RLU) reading of about 1.5E7 and the response curve between 0 and 600 pmol is fitted to a polynomial function (see for example FIG. 2).” for “herbicide.”
(§5) The UDP-Glo™ reagents are made up and used according to the manufacturer's instructions. Thus, Nucleotide Detection Buffer and ATP are combined to make nucleotide detection reagent (NDR) dispensed into aliquots and frozen to be freshly thawed before use. […]
(§6) Table 13 summarizes the results obtained from assays, run as described in Example 1, using a variety of alcohol and aminal PSII herbicides as substrates of the Zea mays bx9 w/t (i.e. C-terminally his tagged SEQ ID no 1) and various mutants of the same, selected from SEQ ID NO: 16-30). All of these proteins were C-terminally his-tagged, expressed and purified as described in Example 1. Assays were run and analyzed as described in example 1. It is seen that various of the mutations herein and combinations thereof led to significant improvements (over the w/t bx9 protein) in catalytic activity versus various of the herbicides and that these improvements are often of sufficient magnitude to be useful for conferring improved herbicide tolerance upon crop. This is especially the case given that even the unmutated w/t bx9 enzyme which has only modest glucosyl transferase activity (for example against compounds V and VI) was nevertheless adequately active to confer significant herbicide tolerance in the glass house (as shown in example 9) even without mutational improvement. It is also seen that particular mutations can lead to very much improved activity in respect of some chemistries but not to others but that, overall, there is at least one variant within the scope of the current invention that provides significant and useful improvement in tolerance to each of the chemistries tested.

[3] = biological target: T3, SEQ ID NO 19, mutant of Zea mays bx9 glucosyl transferase (Zea mays, UniProt B4G072, A281K/A334K/L194V/M279F/S117V); assay: as above; conditions: herbicide mM: V 0.300, VI 0.250, VII 0.210; IV, VIII, XI, XXI, XX, XVIII, XVI, XV, XIV 0.200; others 1.000
T3 construct: His tag (C); made in house
Protocol: as §1
as §2, with “herbicide. Typically, 300 pmol of UDP corresponds to a Relative Luminescence Unit (RLU) reading of about 1.5E7 and the response curve between 0 and 600 pmol is fitted to a polynomial function (see for example FIG. 2).” for “herbicide.”
as §5, §6

[4] = biological target: T4, SEQ ID NO 18, mutant of Zea mays bx9 glucosyl transferase (Zea mays, UniProt B4G072, A281K/A334K/F21Y/M279F/S117V); assay: as above; conditions: herbicide mM: V 0.300, VI 0.250, VII 0.210; IV, VIII, XI, XXI, XX, XVIII, XVI, XV, XIV 0.200; others 1.000
T4 construct: His tag (C); made in house
Protocol: as §1
as §2, with “herbicide. Typically, 300 pmol of UDP corresponds to a Relative Luminescence Unit (RLU) reading of about 1.5E7 and the response curve between 0 and 600 pmol is fitted to a polynomial function (see for example FIG. 2).” for “herbicide.”
as §5, §6

[5] = biological target: T5, Zea mays bx9 glucosyl transferase (C-terminally his tagged SEQ ID NO: 1) (Zea mays, UniProt B4G072); assay: as above; conditions: herbicide mM: V 0.300, VI 0.250, VII 0.210; IV, VIII, XI, XXI, XX, XVIII, XVI, XV, XIV 0.200; others 1.000
T5 construct: His tag (C); made in house; host or cells: E. coli BL21 (DE3), pET24a
T5 sequence (B4G072 1-462): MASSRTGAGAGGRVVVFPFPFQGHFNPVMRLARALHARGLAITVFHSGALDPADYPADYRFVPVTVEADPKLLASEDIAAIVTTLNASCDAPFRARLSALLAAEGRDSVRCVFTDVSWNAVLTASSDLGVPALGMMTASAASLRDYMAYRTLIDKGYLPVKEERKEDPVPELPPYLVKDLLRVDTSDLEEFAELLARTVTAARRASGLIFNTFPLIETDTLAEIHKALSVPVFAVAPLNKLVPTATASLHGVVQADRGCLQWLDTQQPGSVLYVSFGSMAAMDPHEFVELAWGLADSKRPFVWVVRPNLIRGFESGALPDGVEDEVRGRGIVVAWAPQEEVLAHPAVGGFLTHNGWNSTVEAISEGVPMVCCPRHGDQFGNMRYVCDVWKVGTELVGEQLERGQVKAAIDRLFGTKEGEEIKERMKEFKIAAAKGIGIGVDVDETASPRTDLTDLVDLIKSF
Protocol: as §1
as §2, with “herbicide. Typically, 300 pmol of UDP corresponds to a Relative Luminescence Unit (RLU) reading of about 1.5E7 and the response curve between 0 and 600 pmol is fitted to a polynomial function (see for example FIG. 2).” for “herbicide.”
as §3, §4

[6] = biological target: T6, SEQ ID NO 17, zmBX9 S117V, M279F, A334K mutant (Zea mays, UniProt B4G072, A334K/M279F/S117V); assay: as above; conditions: herbicide mM: V 0.300, VI 0.250, VII 0.210; IV, VIII, XI, XXI, XX, XVIII, XVI, XV, XIV 0.200; others 1.000
T6 construct: polypeptides were the C-terminally his-tagged; His tag (C); made in house
Protocol: as §1
as §2, with “herbicide. Typically, 300 pmol of UDP corresponds to a Relative Luminescence Unit (RLU) reading of about 1.5E7 and the response curve between 0 and 600 pmol is fitted to a polynomial function (see for example FIG. 2).” for “herbicide.”
as §3, §4
(§7) Variants of C-terminally his tagged SEQ ID No:1 (w/t bx9 from Zea mays), exemplified as SEQ ID 16-30, were cloned, purified and assayed as described in Example 1. FIG. 4 depicts the data from some experiments to determine the kinetic parameters of some of these variants in respect of herbicide VI and table 12 summarizes the estimates of kinetic parameters obtained from further such experiments in respect of a range of herbicides.
as §6

[7] = biological target: T7, SEQ ID NO 22, mutant of Zea mays bx9 glucosyl transferase (Zea mays, UniProt B4G072, A334K/F21Y/M279F/S117V/T220P); assay: as above; conditions: lower block, concentration printed only in upper block: V 0.300, VII 0.210; IV, VIII, XI, XXI, XX, XVIII, XVI, XV, XIV 0.200; others 1.000 mM
T7 construct: His tag (C); made in house
Protocol: as §1
as §2, with “herbicide. Typically, 300 pmol of UDP corresponds to a Relative Luminescence Unit (RLU) reading of about 1.5E7 and the response curve between 0 and 600 pmol is fitted to a polynomial function (see for example FIG. 2).” for “herbicide.”
as §3, §4, §7, §6

[8] = biological target: T8, SEQ ID NO 21, mutant of Zea mays bx9 glucosyl transferase (Zea mays, UniProt B4G072, A334K/F21Y/L194V/M279F/S117V); assay: as above; conditions: lower block, concentration printed only in upper block: V 0.300, VII 0.210; IV, VIII, XI, XXI, XX, XVIII, XVI, XV, XIV 0.200; others 1.000 mM
T8 construct: His tag (C); made in house
Protocol: as §1
as §2, with “herbicide. Typically, 300 pmol of UDP corresponds to a Relative Luminescence Unit (RLU) reading of about 1.5E7 and the response curve between 0 and 600 pmol is fitted to a polynomial function (see for example FIG. 2).” for “herbicide.”
as §3, §4, §7, §6

T1 sequence (B4G072 whole entry F21Y/S117V/L194V/M279F/A281K/A334K): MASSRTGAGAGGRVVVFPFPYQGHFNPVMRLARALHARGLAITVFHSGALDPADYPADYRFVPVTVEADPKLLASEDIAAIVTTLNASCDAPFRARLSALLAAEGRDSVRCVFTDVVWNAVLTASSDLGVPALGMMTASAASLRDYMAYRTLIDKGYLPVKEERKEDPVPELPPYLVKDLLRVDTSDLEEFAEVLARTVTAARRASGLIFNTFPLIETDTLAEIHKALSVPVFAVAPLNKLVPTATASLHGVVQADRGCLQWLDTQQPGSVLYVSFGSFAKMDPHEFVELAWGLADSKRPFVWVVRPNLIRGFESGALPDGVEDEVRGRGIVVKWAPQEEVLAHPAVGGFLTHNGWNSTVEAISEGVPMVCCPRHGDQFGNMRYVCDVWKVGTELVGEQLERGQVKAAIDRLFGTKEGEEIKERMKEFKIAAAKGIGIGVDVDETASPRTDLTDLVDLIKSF
T2 sequence (B4G072 whole entry F21Y/S117V/L194C/M279F/A334K): as the sequence (B4G072 whole entry F21Y/S117V/L194V/M279F/A281K/A334K) above, with V194C, K281A counted along it
T3 sequence (B4G072 whole entry S117V/L194V/M279F/A281K/A334K): as the sequence (B4G072 whole entry F21Y/S117V/L194V/M279F/A281K/A334K) above, with Y21F counted along it
T6 sequence (B4G072 whole entry S117V/M279F/A334K): as the sequence (B4G072 whole entry F21Y/S117V/L194V/M279F/A281K/A334K) above, with Y21F, V194L, K281A counted along it
T8 sequence (B4G072 whole entry F21Y/S117V/L194V/M279F/A334K): as the sequence (B4G072 whole entry F21Y/S117V/L194V/M279F/A281K/A334K) above, with K281A counted along it
T4 sequence (B4G072 whole entry F21Y/S117V/M279F/A281K/A334K): as the sequence (B4G072 whole entry F21Y/S117V/L194V/M279F/A281K/A334K) above, with V194L counted along it
T7 sequence (B4G072 whole entry F21Y/S117V/T220P/M279F/A334K): as the sequence (B4G072 whole entry F21Y/S117V/L194V/M279F/A281K/A334K) above, with V194L, T220P, K281A counted along it

SMILES: CN1CC(O)N(c2cc(C(C)(C)C)ncn2)C1=O (centres unmarked) [IV]
- Activity [1]: 0.079 pmol/sec/pmol enzyme
- Activity [2]: 0.023 pmol/sec/pmol enzyme
- Activity [3]: 0.053 pmol/sec/pmol enzyme
- Activity [4]: 0.145 pmol/sec/pmol enzyme
- Activity [5]: 0.000 pmol/sec/pmol enzyme
- Activity [6]: 0.019 pmol/sec/pmol enzyme
- Activity [7]: 0.099 pmol/sec/pmol enzyme
- Activity [8]: 0.008 pmol/sec/pmol enzyme
